Test results as given in patent publication US10954269B2, “Anti-inflammatory tripeptides” (Dr. August Wolff Gmbh & Co. KG Arzneimittel, priority 2013, dated 2021).

Experiments:
[1] = tested on: human keratinocytes (HaCaT); experiment: Gene expression of pro-inflammatory cytokines (RT-qPCR) in human keratinocytes (HaCaT); type: cell-based; conditions: HaCaT cells; PMA/Ionomycin; 10^−7 M, 10^−9 M and 10^−11 M
From the text: (§1) Cells were activated with PMA/Ionomycin and treated with PBS, α-MSH, K(D)PT and Examples 3, 8 and 9, respectively, at a concentration of 10^−9 M. Values are normalized to β-actin and are shown relative to the gene expression in PBS-stimulated cells.
(§2) Primary T-cells were isolated from peripheral blood from healthy volunteers and from secondary lymphatic organs from naïve C57BL/6 mice, respectively. The cells were stimulated with phorbol-12-myristate-13-acetate (PMA)/Ionomycin and interferon-gamma (IFN-γ), respectively, for 48 h to activate the cells. The activated cells release pro-inflammatory cytokines. In parallel a human (HaCaT) keratinocyte cell line was activated with PMA/Ionomycin and IFN-γ, respectively, too. […] At the same time release of anti-inflammatory IL-10 was inhibited. Two days after addition of PMA/Ionomycin and IFN-γ, respectively, the induction of IL-1 secretion was determined in the supernatant for proving that the cells are activated. […] The anti-inflammatory properties of the tripeptides were determined 48 h and 72 h following stimulation. A 13-plex-system based FACS analysis was used for showing the reduced secretion of pro-inflammatory cytokines in the supernatant. Data for IL-1, IL-2, IL-6, IL-12p70 IL-17, IFN-γ and TNF-α are considered to be most relevant. Thus, analysis of the anti-inflammatory properties of the tripeptides is preferably based on the results obtained for these analytes. […] Using this method the gene expression of pro-inflammatory markers like IL-6, IL-17, IFN-γ and TNF-α was determined.
(§3) In a third experiment murine and human T cells and HaCaT cells were stimulated with PMA/Ionomycin and treated with Examples 14, 15, 16 and 17 at 10^−7 M, 10^−9 M and 10^−11 M. Cytokine concentrations (IFN-γ, IL-17 and IL-10 for T cells and IFN-γ for HaCat) were assessed in the supernatants using the Luminex technology. Expression of genes coding for Il-1β, IL-6 and TNF-α was determined. […] Moreover, concentrations of pro-inflammatory cytokines IFN-γ and IL-17 was reduced in the supernatants whereas the concentration of anti-inflammatory cytokine IL-10 was increased.

primary human T-cells = experiment: Cytokine secretion on protein level in activated primary human T-cells (13-plex FACS / Luminex, supernatant); type: cell-based; conditions: human T cells; PMA/Ionomycin; Luminex; all tested concentrations
Summary of the method: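 PMA/Ionomycin- or IFN-γ-activated cells (48 h) treated with tripeptides; supernatant 13-plex FACS at 48 h and 72 h post-stimulation. Luminex run: PMA/Ionomycin plus compound at 10^−7, 10^−9, 10^−11 M; IFN-γ, IL-17, IL-10 for T cells, IFN-γ for HaCaT.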

Balb/c mice = experiment: Imiquimod-induced psoriasis in mice; type: in vivo; conditions: i.v.
Protocol: Psoriasis in Balb/c mice is induced by daily application of topical Imiquimod for 8 days. Animal are treated with the test items (topical or systemically). On day 9 the skin phenotype is characterized using a clinical score system (0=normal mouse skin; 1=mild reddening; 2=erythema; 3=erythema, swelling; 4=erythema, swelling, scaling; 5=erythema, swelling, scaling, (bloody) lesions). Skin is analyzed histologically. Lymph nodes are analyzed by flow cytometry and RT-qPCR. mRNA expression in lesional skin is analyzed by RT-qPCR. Cytokine concentrations in the serum are assessed using the Luminex technology.

primary murine T-cells = experiment: Cytokine secretion on protein level in activated primary murine T-cells (13-plex FACS / Luminex, supernatant); type: cell-based, C57BL/6 mice; conditions: murine T cells; PMA/Ionomycin; Luminex; all tested concentrations
Summary of the method: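 T-cells from secondary lymphatic organs of naïve C57BL/6 mice, stimulated with PMA/Ionomycin or IFN-γ; supernatant cytokines measured by 13-plex FACS 48 h and 72 h after stimulation. In another run, PMA/Ionomycin-stimulated cells received compounds at 10^−7, 10^−9 and 10^−11 M, with IFN-γ, IL-17 and IL-10 measured by Luminex.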

primary human T cells = experiment: Gene expression of pro-inflammatory cytokines (RT-qPCR) in primary human T cells; type: cell-based; conditions: PMA/Ionomycin, 10^−7 M, 10^−9 M and 10^−11 M
From the text: as §1, §2, §3

[2] = tested on: human keratinocyte cell line (HaCaT); experiment: Cytokine secretion on protein level in activated human keratinocyte cell line HaCaT (13-plex FACS / Luminex, supernatant); type: cell-based; conditions: HaCaT; PMA/Ionomycin; Luminex; all tested concentrations
Summary of the method: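 Primary T-cells from peripheral blood of healthy volunteers, or HaCaT cells, were activated with PMA/Ionomycin or IFN-γ for 48 h and treated with tripeptides. Supernatants were collected 48 h and 72 h after stimulation and cytokines (IL-1, IL-2, IL-6, IL-12p70, IL-17, IFN-γ, TNF-α) were measured by 13-plex FACS.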

primary murine T cells = experiment: Gene expression of pro-inflammatory cytokines (RT-qPCR) in primary murine T cells; type: cell-based, C57BL/6 mice; conditions: PMA/Ionomycin, 10^−7 M, 10^−9 M and 10^−11 M
From the text: as §1, §2, §3

N^α,N^α-dimethyl-(L)-Phe-(t)-Pro-Aib-OH [Example 17]
expression of pro-inflammatory cytokines IL-1β, IL-6 and TNF-α on mRNA level [1]: reduced expression | concentration of anti-inflammatory cytokine IL-10 in the supernatants (primary human T-cells): increased | concentrations of pro-inflammatory cytokines IFN-γ and IL-17 in the supernatants (primary human T-cells): reduced | concentrations of TNF-α and IL-17 in the serum (Balb/c mice): reduced | epidermal thickness (Balb/c mice): reduced | mRNA expression of IFN-γ and IL-36 in lesional skin (Balb/c mice; compared to vehicle control): reduced | clinical score (Balb/c mice; day 9): reduced | concentration of anti-inflammatory cytokine IL-10 in the supernatants (primary murine T-cells): increased | concentrations of pro-inflammatory cytokines IFN-γ and IL-17 in the supernatants (primary murine T-cells): reduced | expression of pro-inflammatory cytokines IL-1β, IL-6 and TNF-α on mRNA level (primary human T cells): reduced expression | concentration of pro-inflammatory cytokine IFN-γ in the supernatants [2]: reduced | expression of pro-inflammatory cytokines IL-1β, IL-6 and TNF-α on mRNA level (primary murine T cells): reduced expression
